Experimental findings from ChEMBL document CHEMBL1201862, “PubChem BioAssay data set” (2004) are described below.

Experiment [1] addresses Mitogen-activated protein kinase 10 (Homo sapiens, UniProt P53779). As to the kind of experiment: Dose response biochemical screening assay for inhibitors of c-Jun N-Terminal Kinase 3 (JNK3). [Related pubchem assays: 746 ].
Another experiment concerns the target Cytochrome P450 2C9 (Homo sapiens, UniProt P11712).
Experiment [2] deals with T1, Zinc finger protein mex-5 (Caenorhabditis elegans, UniProt Q9XUB2).
T1 sequence (Q9XUB2 whole entry): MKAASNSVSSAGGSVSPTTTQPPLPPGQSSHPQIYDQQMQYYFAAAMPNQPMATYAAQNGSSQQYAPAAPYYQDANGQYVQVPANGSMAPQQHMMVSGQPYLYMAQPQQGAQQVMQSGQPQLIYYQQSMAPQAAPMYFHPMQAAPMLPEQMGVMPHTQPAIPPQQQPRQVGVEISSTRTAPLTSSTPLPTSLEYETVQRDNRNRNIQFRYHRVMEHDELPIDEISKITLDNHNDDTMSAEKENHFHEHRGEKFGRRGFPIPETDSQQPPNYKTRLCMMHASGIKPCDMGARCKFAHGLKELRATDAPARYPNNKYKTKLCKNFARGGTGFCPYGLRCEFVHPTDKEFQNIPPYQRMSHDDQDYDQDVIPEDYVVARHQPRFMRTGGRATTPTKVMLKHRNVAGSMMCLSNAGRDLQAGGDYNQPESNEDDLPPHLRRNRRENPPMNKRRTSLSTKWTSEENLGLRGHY
As to the kind of experiment: MEX-5/TCR-2 RNA interaction inhibitors, dose response, biochemical, C. elegans, fluorescence polarization (AID 1960). On the technique in general: Polarisation of emitted light reports the rotation of a fluorescent probe.

Experiment [3] can be described thus: inhibitors of intracellular T. cruzi replication, confirmation, NIH3T3 host cells, beta-gal luminescence (AID 2044).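 Further: intracellular parasites grown in NIH/3T3 mouse fibroblasts as host cells; luminescent beta-galactosidase reporter signal from transgenic T. cruzi replicating inside host cells; inhibitors lower the luminescence signal.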 The experiment is classed as functional, cell-based.
Experiment [4] concerns the target T2, RNA-binding protein pos-1 (Caenorhabditis elegans, UniProt G5EF15).
T2 sequence (G5EF15 whole entry): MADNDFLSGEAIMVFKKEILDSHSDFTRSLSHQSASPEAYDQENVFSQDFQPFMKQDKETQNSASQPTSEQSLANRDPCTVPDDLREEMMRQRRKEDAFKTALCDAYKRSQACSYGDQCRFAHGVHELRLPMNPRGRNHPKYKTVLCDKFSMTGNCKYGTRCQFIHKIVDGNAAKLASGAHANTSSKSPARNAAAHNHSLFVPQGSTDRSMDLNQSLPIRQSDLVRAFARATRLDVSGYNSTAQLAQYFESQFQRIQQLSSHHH
As to the kind of experiment: inhibitors of POS-1/mex-3 RNA binding, dose response, biochemical, fluorescence polarization (AID 1964).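 Further: purified POS-1 fused to maltose binding protein made in E. coli; potency of compounds blocking POS-1 binding to fluorescent RNA.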

The nature of experiment [5]: cytotoxicity toward NIH3T3 fibroblasts, dose response, counter-screen, cell-based, ATP luminescence, mouse fibroblasts (AID 2010).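 Further: cells exposed to compound for about 90 hours before reading.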 The experiment is classed as functional.
The target in experiment [6] is T3, Heat shock factor protein 1 (Mus musculus, UniProt P38532).
T3 sequence (P38532 whole entry): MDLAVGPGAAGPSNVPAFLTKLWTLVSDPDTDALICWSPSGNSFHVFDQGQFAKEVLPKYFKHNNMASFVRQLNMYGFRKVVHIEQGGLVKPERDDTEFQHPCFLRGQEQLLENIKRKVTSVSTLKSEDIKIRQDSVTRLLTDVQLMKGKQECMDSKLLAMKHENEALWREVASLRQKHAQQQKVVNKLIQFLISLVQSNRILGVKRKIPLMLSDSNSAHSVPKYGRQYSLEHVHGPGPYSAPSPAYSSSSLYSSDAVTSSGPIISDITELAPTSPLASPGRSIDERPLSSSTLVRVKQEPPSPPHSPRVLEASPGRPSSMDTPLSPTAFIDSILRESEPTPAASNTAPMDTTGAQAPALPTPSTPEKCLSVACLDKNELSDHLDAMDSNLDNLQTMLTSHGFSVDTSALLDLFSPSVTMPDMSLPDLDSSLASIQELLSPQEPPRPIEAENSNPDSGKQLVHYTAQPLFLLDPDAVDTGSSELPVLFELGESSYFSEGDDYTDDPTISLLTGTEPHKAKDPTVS
As to the kind of experiment: inhibition of MG132-induced HSE-luciferase signal, confirmation, cell-based, NIH3T3, luminescence, dose retest (AID 2382).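 Further: NIH3T3 fibroblasts with HSF1-driven luciferase reporter stressed by proteasome inhibitor MG132; luminescence from HSF1-driven luciferase expression after 8 hours of MG132 stress.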 The experiment is classed as functional.

For experiment [7], the target named is Peroxisome proliferator-activated receptor gamma/Nuclear receptor coactivator 2 (Homo sapiens, UniProt P37231). As to the kind of experiment: TR-FRET dose response biochemical High Throughput Screening assay for agonists of the steroid receptor coactivator 2 (SRC-2) recruitment by the peroxisome proliferator-activated receptor gamma (PPAR gamma): non-selective agonists. [Related pubchem assays: 1297, 1032 ]. The experiment is classed as functional. (In general: TR-FRET usually uses a lanthanide donor and a delayed reading to cut background.)

In experiment [8] the target is Peroxisome proliferator-activated receptor gamma/Nuclear receptor coactivator 1 (Homo sapiens, UniProt P37231). As to the kind of experiment: TR-FRET dose response biochemical High Throughput Screening assay for agonists of the steroid receptor coactivator 1 (SRC-1) recruitment by the peroxisome proliferator-activated receptor gamma (PPAR gamma): non-selective agonists. [Related pubchem assays (depositor defined):AID1300, AID1808, AID504735, AID631]. The format is protein assay.

The nature of experiment [9]: MC4R antagonists, dose response, counter-screen for LGR2 antagonist project, cell-based, plate reader, cherry pick (AID 743444).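 Further: transfected HEK 293 cells stimulated with alpha-MSH peptide; potency of inhibitors of the alpha-MSH evoked signal.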 The format is functional.
In experiment [10] the target is Peroxisome proliferator-activated receptor gamma/Nuclear receptor coactivator 3 (Homo sapiens, UniProt P37231). As to the kind of experiment: TR-FRET dose response biochemical High Throughput Screening assay for agonists of the steroid receptor coactivator 3 (SRC-3) recruitment by the peroxisome proliferator-activated receptor gamma (PPAR gamma): non-selective agonists. [Related pubchem assays: 1301 (Confirmation screen.), 1048 (Primary screen.)]. The format is functional.

Experiment [11] in a line: LGR2 antagonists, dose response, cell-based, HEK293, CRE-luciferase reporter, cherry pick, set 2 (AID 743343).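 Further: transfected cells were stimulated with diluted bursicon conditioned medium after compound addition.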 The experiment is classed as functional. For orientation: Reporter assays use an easily measured gene product as a stand-in for the process of interest.
A short description of experiment [12]: HEK293 cell cytotoxicity, dose response, cytotoxicity control, plate reader, cherry-picked samples (AID 743446). The experiment is classed as functional, cell-based.
The nature of experiment [13]: HepG2 cell cytotoxicity, dose response, cytotoxicity control, plate reader, cherry-pick, antagonist series (AID 743416). The format is functional, cell-based.
Experiment [14] addresses T4, Microphthalmia-associated transcription factor (Homo sapiens, UniProt O75030).
T4 sequence (O75030 whole entry): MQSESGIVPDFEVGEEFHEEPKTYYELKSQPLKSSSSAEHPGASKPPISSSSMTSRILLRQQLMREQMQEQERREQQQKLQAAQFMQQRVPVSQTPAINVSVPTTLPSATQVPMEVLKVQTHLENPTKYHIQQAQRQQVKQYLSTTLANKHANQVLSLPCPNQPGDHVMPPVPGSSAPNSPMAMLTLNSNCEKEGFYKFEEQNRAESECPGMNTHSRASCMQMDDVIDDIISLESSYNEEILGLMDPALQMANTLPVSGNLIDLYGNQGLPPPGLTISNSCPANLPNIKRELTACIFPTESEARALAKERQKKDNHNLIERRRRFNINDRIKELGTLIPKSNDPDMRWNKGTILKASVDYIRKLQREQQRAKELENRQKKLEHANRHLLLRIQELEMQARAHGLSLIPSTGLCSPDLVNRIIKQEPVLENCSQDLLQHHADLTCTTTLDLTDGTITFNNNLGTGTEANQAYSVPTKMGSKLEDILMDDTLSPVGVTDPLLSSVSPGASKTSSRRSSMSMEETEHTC
As to the kind of experiment: TRPM1 promoter luciferase signal decrease, dose response, MITF inhibitor project, cell-based, SK-MEL-5, cherry-picked, set 3 (AID 493073).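 Further: SK-MEL-5 melanoma cells with luciferase driven by the MITF target TRPM1 promoter.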 The format is functional.

Experiment [15] in a line: A549 cell cytotoxicity, dose response, cytotoxicity control, plate reader, cherry-pick, antagonist series (AID 743412). The format is functional, cell-based.
A short description of experiment [16]: M. tuberculosis growth inhibition, HTS (AID 449762). The format is functional.
The nature of experiment [17]: Luminescence Cell-Based Dose Retest to Confirm Inhibitors of Cancer Stem Cells. [Related pubchem assays (depositor defined):AID2717, AID2721]. The experiment is classed as functional. As to conditions: Homo sapiens.
Experiment [18] addresses Eukaryotic translation initiation factor 4E (Mus musculus, UniProt P63073). As to the kind of experiment: eIF4E–eIF4G protein interaction inhibitors, dose response, biochemical, TR-FRET (AID 855).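 Further: potency for disrupting eIF4E binding to eIF4GI seen as loss of FRET.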 The experiment is classed as functional.
Experiment [19] has as its target Bifunctional protein GlmU (Mycobacterium tuberculosis, UniProt P9WMN3). As to the kind of experiment: Inhibitors of Mycobacterial Glucosamine-1-phosphate acetyl transferase (GlmU). Secondary screen. Also on record: species or system Mycobacterium tuberculosis H37Rv.
In experiment [20] the target is Induced myeloid leukemia cell differentiation protein Mcl-1 (Homo sapiens, UniProt Q07820). The format is functional.
The next experiment deals with Large T antigen (Simian virus 40, UniProt P03070). The experiment is classed as functional, Betapolyomavirus macacae.
In another experiment the target is Kallikrein-7 (Homo sapiens, UniProt P49862). As to the kind of experiment: Fluorescence Intensity-based biochemical primary high throughput dose response assay to identify activators of kallikrein-7 (K7) zymogen.
The target of experiment [21] is Ras and Rab interactor 1/Tyrosine-protein kinase ABL1 (Homo sapiens, UniProt P00519+Q13671). The format is functional.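 Further: biochemical TR-FRET dose-response test measuring inhibition of binding between Rin1 and Abl proteins.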
For a further experiment, the target named is Caspase-6 (Homo sapiens, UniProt P55212). As to the kind of experiment: human caspase-6 inhibitors, dose response, biochemical, VEID-R110 fluorescence, cherry-pick (AID 720632).
In the next experiment the target is Genome polyprotein (dengue virus type 2, UniProt P29990). As to the kind of experiment: Dengue-2 NS5 methyltransferase inhibitors, primary screen, biochemical, confirmation dose response (AID 588689). The experiment is classed as functional.

Structures are written as SMILES. Activity calls are given as the source filed them. Where only a bound is given, the exact number is not on record here.

Mitogen-activated protein kinase 10, sequence (P53779 whole entry): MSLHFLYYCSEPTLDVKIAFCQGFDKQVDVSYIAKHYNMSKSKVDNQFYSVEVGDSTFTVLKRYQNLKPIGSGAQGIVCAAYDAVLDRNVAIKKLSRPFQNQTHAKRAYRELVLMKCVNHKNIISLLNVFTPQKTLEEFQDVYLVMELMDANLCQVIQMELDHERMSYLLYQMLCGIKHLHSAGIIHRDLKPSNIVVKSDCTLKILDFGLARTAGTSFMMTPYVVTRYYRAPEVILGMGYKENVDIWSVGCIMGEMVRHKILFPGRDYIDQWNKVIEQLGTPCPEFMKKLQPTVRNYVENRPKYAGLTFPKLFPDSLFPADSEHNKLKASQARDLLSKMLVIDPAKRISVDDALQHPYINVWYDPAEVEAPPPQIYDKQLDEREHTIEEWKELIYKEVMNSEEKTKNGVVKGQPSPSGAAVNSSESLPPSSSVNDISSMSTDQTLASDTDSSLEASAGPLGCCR
Kallikrein-7, sequence (P49862 whole entry): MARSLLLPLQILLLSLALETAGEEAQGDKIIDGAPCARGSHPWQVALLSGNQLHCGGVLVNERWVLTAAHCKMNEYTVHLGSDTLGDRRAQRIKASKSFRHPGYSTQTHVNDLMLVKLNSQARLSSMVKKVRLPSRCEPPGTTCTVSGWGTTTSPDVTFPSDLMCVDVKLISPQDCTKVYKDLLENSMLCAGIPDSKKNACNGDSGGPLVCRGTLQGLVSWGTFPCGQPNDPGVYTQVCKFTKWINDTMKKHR
Bifunctional protein GlmU, sequence (P9WMN3 whole entry): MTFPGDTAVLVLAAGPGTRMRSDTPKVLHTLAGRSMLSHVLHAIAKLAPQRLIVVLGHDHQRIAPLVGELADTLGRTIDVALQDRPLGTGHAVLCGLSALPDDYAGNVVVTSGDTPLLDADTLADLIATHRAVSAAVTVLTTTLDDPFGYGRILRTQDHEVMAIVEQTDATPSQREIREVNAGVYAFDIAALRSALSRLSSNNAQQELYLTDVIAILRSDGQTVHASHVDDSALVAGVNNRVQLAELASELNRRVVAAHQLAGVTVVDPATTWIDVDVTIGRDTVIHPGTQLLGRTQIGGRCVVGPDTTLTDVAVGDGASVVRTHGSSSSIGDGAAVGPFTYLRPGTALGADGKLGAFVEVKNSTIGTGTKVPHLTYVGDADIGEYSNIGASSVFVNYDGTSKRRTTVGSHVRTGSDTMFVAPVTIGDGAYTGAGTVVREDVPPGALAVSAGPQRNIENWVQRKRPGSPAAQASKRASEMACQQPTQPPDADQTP
Eukaryotic translation initiation factor 4E, sequence (P63073 whole entry): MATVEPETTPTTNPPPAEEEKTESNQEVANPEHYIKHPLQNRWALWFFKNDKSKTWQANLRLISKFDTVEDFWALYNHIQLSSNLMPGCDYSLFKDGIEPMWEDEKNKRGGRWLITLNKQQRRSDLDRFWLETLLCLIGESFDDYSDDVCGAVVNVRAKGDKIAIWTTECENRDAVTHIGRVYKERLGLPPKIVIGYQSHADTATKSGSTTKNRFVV
Ras and Rab interactor 1/Tyrosine-protein kinase ABL1, sequence (P00519 whole entry): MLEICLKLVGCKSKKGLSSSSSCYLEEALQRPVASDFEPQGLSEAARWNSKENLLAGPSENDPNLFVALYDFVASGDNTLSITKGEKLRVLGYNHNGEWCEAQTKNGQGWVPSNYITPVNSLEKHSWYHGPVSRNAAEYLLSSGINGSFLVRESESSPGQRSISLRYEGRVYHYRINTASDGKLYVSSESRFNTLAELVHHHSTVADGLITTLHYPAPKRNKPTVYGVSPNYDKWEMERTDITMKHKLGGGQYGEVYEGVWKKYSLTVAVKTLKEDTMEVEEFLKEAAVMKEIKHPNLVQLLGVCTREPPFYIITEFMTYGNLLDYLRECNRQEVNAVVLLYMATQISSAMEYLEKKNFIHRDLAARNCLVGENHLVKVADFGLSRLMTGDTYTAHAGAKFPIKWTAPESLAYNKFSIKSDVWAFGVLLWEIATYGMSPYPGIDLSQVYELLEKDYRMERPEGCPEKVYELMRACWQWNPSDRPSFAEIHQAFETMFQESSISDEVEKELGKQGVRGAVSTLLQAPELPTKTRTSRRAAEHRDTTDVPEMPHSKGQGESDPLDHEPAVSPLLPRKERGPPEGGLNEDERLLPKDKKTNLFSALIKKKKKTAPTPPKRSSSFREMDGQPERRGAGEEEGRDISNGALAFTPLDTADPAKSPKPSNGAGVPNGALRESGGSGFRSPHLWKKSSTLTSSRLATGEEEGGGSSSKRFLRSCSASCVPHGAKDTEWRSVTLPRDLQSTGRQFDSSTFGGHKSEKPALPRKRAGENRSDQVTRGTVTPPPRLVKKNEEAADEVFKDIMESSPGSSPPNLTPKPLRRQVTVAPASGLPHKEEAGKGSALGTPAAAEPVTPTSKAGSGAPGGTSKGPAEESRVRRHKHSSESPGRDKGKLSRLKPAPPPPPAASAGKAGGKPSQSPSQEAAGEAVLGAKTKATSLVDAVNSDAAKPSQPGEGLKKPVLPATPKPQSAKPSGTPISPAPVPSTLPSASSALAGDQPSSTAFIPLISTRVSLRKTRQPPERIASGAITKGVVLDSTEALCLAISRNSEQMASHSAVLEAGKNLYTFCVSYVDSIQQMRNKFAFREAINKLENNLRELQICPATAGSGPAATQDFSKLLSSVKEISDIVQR
Ras and Rab interactor 1/Tyrosine-protein kinase ABL1, sequence (Q13671 whole entry): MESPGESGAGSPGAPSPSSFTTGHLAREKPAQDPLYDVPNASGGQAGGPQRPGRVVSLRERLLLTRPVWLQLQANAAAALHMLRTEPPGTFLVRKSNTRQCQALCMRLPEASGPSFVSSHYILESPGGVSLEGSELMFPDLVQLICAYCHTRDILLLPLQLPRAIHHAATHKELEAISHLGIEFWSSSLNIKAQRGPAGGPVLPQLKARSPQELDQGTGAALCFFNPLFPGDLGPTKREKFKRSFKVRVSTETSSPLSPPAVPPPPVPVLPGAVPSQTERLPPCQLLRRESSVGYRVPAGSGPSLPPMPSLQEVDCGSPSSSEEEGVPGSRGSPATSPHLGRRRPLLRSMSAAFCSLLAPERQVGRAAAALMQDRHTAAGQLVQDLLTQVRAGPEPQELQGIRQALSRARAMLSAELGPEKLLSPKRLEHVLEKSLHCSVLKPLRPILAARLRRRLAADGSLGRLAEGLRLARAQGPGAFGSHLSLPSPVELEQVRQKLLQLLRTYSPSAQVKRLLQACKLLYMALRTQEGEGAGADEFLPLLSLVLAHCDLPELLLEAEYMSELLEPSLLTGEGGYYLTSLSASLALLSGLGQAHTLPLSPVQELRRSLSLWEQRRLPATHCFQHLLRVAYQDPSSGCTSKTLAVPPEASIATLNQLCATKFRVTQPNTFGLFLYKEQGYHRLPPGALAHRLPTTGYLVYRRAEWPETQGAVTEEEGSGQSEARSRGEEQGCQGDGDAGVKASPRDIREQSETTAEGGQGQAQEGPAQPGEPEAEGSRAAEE
Genome polyprotein, sequence (P29990 2492-3391 limits assumed): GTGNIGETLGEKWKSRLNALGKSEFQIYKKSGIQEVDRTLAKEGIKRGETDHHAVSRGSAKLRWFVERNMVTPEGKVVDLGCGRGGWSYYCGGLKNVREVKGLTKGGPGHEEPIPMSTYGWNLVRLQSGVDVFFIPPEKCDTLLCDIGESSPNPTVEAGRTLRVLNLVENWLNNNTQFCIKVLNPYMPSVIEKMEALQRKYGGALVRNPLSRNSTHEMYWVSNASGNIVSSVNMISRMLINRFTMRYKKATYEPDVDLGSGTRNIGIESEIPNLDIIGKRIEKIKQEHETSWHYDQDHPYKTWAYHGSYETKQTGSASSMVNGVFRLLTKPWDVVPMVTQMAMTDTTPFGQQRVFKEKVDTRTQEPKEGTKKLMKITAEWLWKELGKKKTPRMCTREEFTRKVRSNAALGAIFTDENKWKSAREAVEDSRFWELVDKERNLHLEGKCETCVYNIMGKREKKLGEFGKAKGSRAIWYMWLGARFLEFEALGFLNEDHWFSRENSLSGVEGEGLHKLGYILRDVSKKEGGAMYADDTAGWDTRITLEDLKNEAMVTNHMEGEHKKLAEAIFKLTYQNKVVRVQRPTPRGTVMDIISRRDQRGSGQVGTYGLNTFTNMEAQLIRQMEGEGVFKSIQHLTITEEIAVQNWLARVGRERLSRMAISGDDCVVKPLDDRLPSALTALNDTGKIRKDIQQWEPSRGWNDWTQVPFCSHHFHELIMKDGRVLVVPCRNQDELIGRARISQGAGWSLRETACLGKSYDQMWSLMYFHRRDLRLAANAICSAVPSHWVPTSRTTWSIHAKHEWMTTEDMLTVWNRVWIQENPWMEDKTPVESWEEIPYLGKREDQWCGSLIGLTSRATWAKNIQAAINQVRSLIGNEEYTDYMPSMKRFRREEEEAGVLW
Induced myeloid leukemia cell differentiation protein Mcl-1, sequence (Q07820 whole entry): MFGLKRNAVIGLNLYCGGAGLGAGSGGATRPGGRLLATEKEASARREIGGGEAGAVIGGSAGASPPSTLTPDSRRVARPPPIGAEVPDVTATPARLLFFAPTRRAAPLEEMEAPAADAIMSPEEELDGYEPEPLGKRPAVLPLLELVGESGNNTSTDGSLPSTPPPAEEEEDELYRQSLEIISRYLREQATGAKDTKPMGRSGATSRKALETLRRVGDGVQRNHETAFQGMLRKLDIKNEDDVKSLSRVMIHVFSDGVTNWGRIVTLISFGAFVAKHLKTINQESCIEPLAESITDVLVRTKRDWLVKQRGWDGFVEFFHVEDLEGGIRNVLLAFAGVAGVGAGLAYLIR
Caspase-6, sequence (P55212 24-179 limits assumed): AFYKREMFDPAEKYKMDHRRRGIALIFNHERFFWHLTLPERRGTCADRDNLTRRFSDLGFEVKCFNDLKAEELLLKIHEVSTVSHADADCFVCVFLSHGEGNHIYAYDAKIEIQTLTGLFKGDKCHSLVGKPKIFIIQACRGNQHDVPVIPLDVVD
Caspase-6, sequence (P55212 194-293 limits assumed): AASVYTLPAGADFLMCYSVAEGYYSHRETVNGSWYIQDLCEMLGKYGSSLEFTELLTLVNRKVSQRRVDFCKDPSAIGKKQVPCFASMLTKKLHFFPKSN

One may read the IC50 as the midpoint of a concentration-inhibition curve. The term AC50 denotes the concentration at which the activity in the assay is half-maximal. On to `Nc1nc(-c2ccccc2)cc(-c2ccccc2O)n1`, for which the IC50 in experiment [1] was 40.6 µM (not active). Also, the AC50 at Cytochrome P450 2C9 is 3.55 µM (inconclusive).
As a reminder, the EC50 is the concentration that produces a half-maximal response. On to `N#Cc1c(N)nc(SCc2ccncc2)c(C#N)c1-c1cccs1`, for which the EC50 in experiment [2] is > 300 µM (not active); in experiment [3] it was 0.145 µM (active); in experiment [4] it was > 300 µM (not active); in experiment [5], 17.1 µM (active); in experiment [6] it was > 195 µM (not active). For the same compound, the half-inhibitory concentration (IC50) in experiment [1] was 54.8 µM (not active).
As for `Cc1ccccc1C(=O)Nc1nnc(-c2ccco2)s1`, the EC50 in [7] is > 26.5 µM (not active); in experiment [8] it was > 79.4 µM (inactive); in experiment [10], > 79.4 µM (not active). Moreover, the AC50 was 8.18 µM (active) in experiment [9] and 4.84 µM (active) in experiment [11].
For `O=C(Cn1ncc(Cl)c(Cl)c1=O)N1CCOCC1`, the AC50 in experiment [12] was 13.7 µM (active); in [13], 34.4 µM (active); in [14] it was 9.82 µM (active); in experiment [15], 38 µM (active).
As for `CCCCCCSc1nsc(NC(=O)CC(C)C)n1`, the IC50 in experiment [16] is > 100 µM (active). Besides, the AC50 in experiment [17] was 2.02 µM (active).
For the compound `O=C1C(=Cc2ccc(Br)o2)C(=O)c2ccccc21`, the IC50 in experiment [18] was 20.1 µM (active); in experiment [19] it was 18.5 µM (active); in experiment [20], 1.92 µM (active); at Large T antigen, 93.7 µM (active).
As for `O=C(O)CCC(=O)NN1C(=O)c2ccccc2NC1c1ccco1` (stereo not drawn), the EC50 on Kallikrein-7 was > 69.5 µM (inactive).
As to `Oc1ccc(/C=N/N2CCCCC2)c(O)c1O`, the EC50 in experiment [2] is > 300 µM (inconclusive); in experiment [4] it was 20.3 µM (active). For the same compound, the IC50 in experiment [21] was > 73.5 µM (inactive); on Genome polyprotein, > 100 µM (active). The AC50 on Caspase-6 was 24.2 µM (active).
On to `Cc1ccccc1NC(=O)COC(=O)COc1ccc2ccc(=O)oc2c1`, for which, on Kallikrein-7, the EC50 was 31.9 µM (inactive).
On to `COc1cccc(C#Cc2ccc([C@@H]3[C@@H](CO)N(C(=O)C4CCC4)[C@H]3C#N)cc2)c1`, for which the AC50 in experiment [12] was 46.8 µM (active); in [13], 26.8 µM (active); in experiment [15] it was 30.9 µM (active).
